Measurements taken from paper PMC11784839, “Monoaminergic neurotransmitters are bimodal effectors of tau aggregation” (Science Advances, 2025).
*1 amine or outer side, *2 acyl side, *3 side chain or, on linkers, in order; H or OH if unused. Where a SMILES comes first, the peptide text is derived from it. Bridges are numbered along the chain shown (N, C = ends). [ ]: non-standard residue; d: D form. hTyr(3S-OH,4S-OH,3'-OSO3H) = N[C@H](C(=O)O)[C@H](O)[C@@H](O)c1ccc(O)c(OS(=O)(=O)O)c1; Orn(4R-OH,5R-OH) = O=C([C@H](C[C@@H](O)[C@@H](O)N[*:3])N[*:1])[*:2]; Pro(3S-OH,4S-Me) = C[C@H]1CN[C@H](C(=O)O)[C@H]1O; Gln(3R-OH) = NC(=O)C[C@@H](O)[C@H](N)C(=O)O; Hyp = O=C(O)[C@@H]1C[C@@H](O)CN1

Molecular target: tau (Homo sapiens, UniProt P10636)
Assay: MCE Phenols Library screening, tau biosensor cell seeding assay (AvZ)
Type: cell-based
Conditions: for Z repl 1 / Z Repl 2: Z score; for Z repl 1 / raw data 1: replicate 1; for Z Repl 2 / raw data 2: replicate 2; for AvZ (average z score of seeding, SDs from the mean level of seeding): 10 μM phenol in cell cultures, AD brain homogenate preincubated 16 hours, two biological replicates, positive = catalyzes seeding, negative = inhibits
[1] = average Z score of two replicates, Phenols Library screen
[2] = average Z score of the two replicates, MCE Phenols Library screen
[3] = average puncta of the two replicates
[4] = average Z score of the two replicates, tau seeding
[5] = average Z score of the two replicates, tau biosensor seeding, MCE Phenols Library screen

Chain of tau (P10636 623-695 limits assumed): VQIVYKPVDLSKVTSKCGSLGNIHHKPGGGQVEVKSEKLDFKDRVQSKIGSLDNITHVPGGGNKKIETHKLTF

SMILES	Z repl 1	Z Repl 2	av Z [1]	av puncta (average of raw data 1 and 2)	raw data 1 (puncta)	raw data 2 (puncta)	av Z [2]	av puncta [3]	av Z [4]	AvZ (average z score of seeding, SDs from the mean level of seeding)	raw data 1 (raw puncta)	raw data 2 (raw puncta)	av Z [5]
O=C1c2c(O)cc(O)cc2O[C@H](c2cc(O)c(O)c(O)c2)[C@H]1O [Dihydromyricetin]	-1.346	-0.885	–	–	10190.2	3319.03	-1.115	–	–	–	–	–	–
COc1cc(CCCO)cc(OC)c1O [Dihydrosinapyl alcohol]	-0.789	0.221	–	–	–	–	–	16004.7	–	-0.284	16882.6	15126.8	–
Cc1cc(O)c2c(c1)C(=O)c1cc(O)cc(O[C@@H]3O[C@H](CO)[C@@H](O)[C@H](O)[C@H]3O)c1C2=O [Emodin-8-glucoside]	0.113	-0.367	-0.127	18275.8	27700.1	8851.57	–	–	–	–	–	–	–
Cc1cc(O)c2c(c1)C(=O)c1cc(O)cc(O)c1C2=O [Emodin]	0.139	-0.692	–	–	–	–	-0.277	16696.4	–	–	28020.6	5372.21	–
COc1ccc(-c2oc3c(CC=C(C)C)c(O[C@@H]4O[C@H](CO)[C@@H](O)[C@H](O)[C@H]4O)cc(O)c3c(=O)c2O[C@@H]2O[C@@H](C)[C@H](O)[C@@H](O)[C@H]2O[C@@H]2O[C@H](CO)[C@@H](O)[C@H](O)[C@H]2O)cc1 [Epimedin A]	-1.302	-0.744	–	7768.23	10713.2	4823.23	-1.023	–	–	–	–	–	–
COc1ccc(-c2oc3c(CC=C(C)C)c(O[C@@H]4O[C@H](CO)[C@@H](O)[C@H](O)[C@H]4O)cc(O)c3c(=O)c2O[C@@H]2O[C@@H](C)[C@H](O)[C@@H](O)[C@H]2O[C@@H]2OC[C@@H](O)[C@H](O)[C@H]2O)cc1 [Epimedin B]	0.357	0.482	–	24278.7	30639	17918.4	–	–	0.42	–	–	–	–
CC(C)=CCc1c(O[C@@H]2O[C@H](CO)[C@@H](O)[C@H](O)[C@H]2O)cc(O)c2c(=O)c(O[C@@H]3O[C@@H](C)[C@H](O)[C@@H](O)[C@H]3O)c(-c3ccc(O)cc3)oc12 [Epimedoside A]	0.582	-0.181	–	22081.1	33332	10830.3	–	–	0.2	–	–	–	–
O=C1C[C@@H](c2ccc(O)c(O)c2)Oc2cc(O)cc(O)c21 [Eriodictyol]	-0.756	0.192	–	–	–	–	-0.282	16042.6	–	–	17267.7	14817.6	–
C[C@]12CC[C@@H]3c4ccc(O)cc4CC[C@H]3[C@@H]1C[C@@H](O)[C@@H]2O [Estriol]	0.006	0.639	–	23004.4	26418.8	19589.9	–	–	0.322	–	–	–	–
CCOC(=O)c1cc(O)c(O)c(O)c1 [Ethyl gallate]	-0.43	-1.15	–	10837.2	21190.3	484.087	–	–	–	-0.79	–	–	–
C#C[C@]1(O)CC[C@H]2[C@@H]3CCc4cc(O)ccc4[C@H]3CC[C@@]21C [Ethynyl Estradiol]	0.578	0.204	–	24116.9	33285.2	14948.5	–	–	0.391	–	–	–	–
C=CCc1ccc(O)c(OC)c1 [Eugenol]	-0.386	-0.861	–	–	21709.5	3574.2	–	12641.9	–	-0.624	–	–	–
COc1ccc(-c2cc(=O)c3c(O)c(OC)c(OC)cc3o2)cc1O [Eupatorin]	0.938	0.779	–	29352.8	37615.7	21089.9	–	–	–	–	–	–	0.859
C[C@@H](O)[C@@H]1NC(=O)[C@@H](N)C[C@@H](O)[C@@H](O)NC(=O)[C@@H]2[C@@H](O)[C@@H](C)CN2C(=O)[C@H]([C@H](O)CC(N)=O)NC(=O)[C@H]([C@H](O)[C@@H](O)c2ccc(O)c(OS(=O)(=O)O)c2)NC(=O)[C@@H]2C[C@@H](O)CN2C1=O [FR179642] (H-[Orn(4R-OH,5R-OH)]T[Hyp][hTyr(3S-OH,4S-OH,3'-OSO3H)][Gln(3R-OH)][Pro(3S-OH,4S-Me)]; lactam 1-C)	1.095	0.887	–	30866.7	39497.8	22235.7	–	–	–	–	–	–	0.991
COc1cc(/C=C/C(=O)[O-])ccc1O.[Na+] [Ferulic acid (sodium)]	-1.081	-0.257	–	–	13369.9	10022.5	–	11696.2	–	-0.669	–	–	–
COc1cc(/C=C/C(=O)O)ccc1O [Ferulic acid]	-0.555	-0.346	–	–	–	–	–	14374.8	–	-0.451	19680.6	9068.99	–
CCc1c(Cl)c(O)c(Cl)c(O)c1C(=O)O[C@H]1[C@H](O)[C@H](OC)[C@H](OC/C2=C\C=C\C[C@H](O)/C(C)=C/[C@H](CC)[C@@H](O[C@@H]3OC(C)(C)[C@@H](OC(=O)C(C)C)[C@H](O)[C@@H]3O)/C(C)=C/C(C)=C/C[C@@H]([C@@H](C)O)OC2=O)O[C@@H]1C [Fidaxomicin]	0.356	0.717	–	25523.7	30618.6	20428.7	–	–	0.537	–	–	–	–
COc1cc(O)c(C(=O)/C=C/c2ccccc2)c(OC)c1 [Flavokawain B]	-0.296	-0.062	-0.179	17449.7	22793.1	12106.3	–	–	–	–	–	–	–
C[C@@H]1O[C@@H](OC[C@H]2O[C@@H](OCCc3ccc(O)c(O)c3)[C@H](O)[C@@H](O)[C@@H]2OC(=O)/C=C/c2ccc(O)c(O)c2)[C@H](O)[C@H](O)[C@H]1O [Forsythiaside A]	0.23	-0.492	-0.131	18310.1	29105.9	7514.37	–	–	–	–	–	–	–

Second part, led by results:

Z repl 1	Z Repl 2	av Z [1]	av puncta (average of raw data 1 and 2)	raw data 1 (puncta)	raw data 2 (puncta)	av Z [2]	av puncta [3]	av Z [4]	SMILES	AvZ (average z score of seeding, SDs from the mean level of seeding)	raw data 1 (raw puncta)	raw data 2 (raw puncta)	av Z [5]
-0.147	0.084	-0.031	19127	24585.9	13668.2	–	–	–	O=C1c2c(O)cc(O)cc2O[C@H](c2ccc(O)cc2)[C@H]1O [Dihydrokaempferol]	–	–	–	–
-0.334	-0.918	–	–	22335.7	2966.05	-0.626	12650.9	–	COc1cc2c(O)c3c(c(-c4ccc5c(c4)OCO5)c2cc1OC)C(=O)OC3 [Diphyllin]	–	–	–	–
-1.092	-0.742	–	9040.03	13242.9	4837.17	-0.917	–	–	COc1cc(O)ccc1/C=C/C(=O)c1ccc(O)cc1 [Echinatin]	–	–	–	–
-1.043	-0.067	–	–	13826.2	12045.1	-0.555	12935.6	–	O=c1oc2c(O)c(O)cc3c(=O)oc4c(O)c(O)cc1c4c23 [Ellagic acid]	–	–	–	–
-0.303	0.417	0.057	19967.8	22716.1	17219.4	–	–	–	O=C1C[C@@H](c2ccc(O)c(O)c2)Oc2cc(O[C@@H]3O[C@H](CO)[C@@H](O)[C@H](O)[C@H]3O)cc(O)c21 [Eriodictyol-7-O-glucoside]	–	–	–	–
-0.338	-0.78	–	–	22288.3	4440.46	-0.559	13364.4	–	O=c1ccc2cc(O)c(O)cc2o1 [Esculetin]	–	–	–	–
0.583	0.288	–	24597.1	33348.4	15845.8	–	–	0.436	COc1ccc(-c2cc(=O)c3c(O)c(OC)c(O)cc3o2)cc1OC [Eupatilin]	–	–	–	–
-0.382	-0.766	–	–	21763	4584.63	-0.574	13173.8	–	Cc1c(O)c(C)c2c(c1O)C(=O)C[C@@H](c1ccc(O)cc1)O2 [Farrerol]	–	–	–	–
-1.392	-0.758	–	7157.01	9642.85	4671.16	-1.075	–	–	O=c1c(O)c(-c2ccc(O)c(O)c2)oc2cc(O)ccc12 [Fisetin]	–	–	–	–
-0.895	-0.498	–	–	15599.3	7451.23	-0.697	11525.3	–	O=C1C[C@@H](c2ccc(O)c(O)c2)Oc2c1ccc(O[C@@H]1O[C@H](CO)[C@@H](O)[C@H](O)[C@H]1O)c2O [Flavanomarein]	–	–	–	–
-0.666	-0.177	–	–	–	–	-0.422	14614.7	–	COc1cc(O)c(C(=O)/C=C/c2ccc(O)cc2)c(OC)c1 [Flavokawain C]	–	18356	10873.4	–
